This series is described as follows: Microcalorimetric study of amorphous material. The series is classed as physicochemical. Particulars: microcalorimetric study / detected in this work.

`CC(C)(C)NCC(O)c1ccc(O)c(CO)c1` (stereo not shown) [salbutamol]: the “amorphous (unstable) material” value was “some amorphous material”.

(Values after patent publication US20060025326A1, “Method for treating carrier particles and its use” (LAB Pharma Oy, priority 2002, published 2006).)
